Experimental findings from patent US11485701B2, “Insect repellent compounds and compositions, and methods thereof” (Iowa State University Research Foundation, Inc., priority 2016, dated 2022) are described below.

One assay has as its system Aedes aegypti. The assay can be described thus: Human skin testing, biting deterrence (BioGents test cage, treated nylon sleeve). Format: in vivo. The procedure:
Female mosquitoes (Aedes aegypti) were reared according to the standard protocol at a temperature of 27.5±1° C., a relative humidity of 65-80% and a 12:12 hour photo period. The light period (450 Lux) was set from 7:00 to 19:00. After hatching from the eggs, larvae were kept in a water basin (30×30×10 cm) filled with a 1:1 mixture of tap- and deionized water with low oxygen content and fed with fish food flakes (Tetra Min®). Pupae were transferred to a cage (40×30×20 cm) provided with sugar solution (10% dextrose). Mosquitoes at an age of 5 to 10 days post-emergence were used for behavioral tests.
BioGents (BG) test cages are an in-house improvement of conventional test cages for the evaluation of mosquito repellents (Obermayr et al., “A Novel Test Cage with an Air Ventilation System as an Alternative to Conventional Cages for the Efficacy Testing of Mosquito Repellents,” J. Med. Entomol. 47:1116-22 (2010) which is hereby incorporated by reference in its entirety). The cages have a volume of 27.000 cm^3 (41×41×16 cm). Four sides of a cage are made of acrylic glass, the floor is made of metal sheet, and the rear side is covered by a gauze sleeve. The floor sheet is equipped with a test window (size: 56 cm^2; 14.8×3.8 cm) for the exposure of the treated skin. In between tests, BG cages are connected to a ventilation system that provides clean, warm, and humid air (26±1° C., 65±5% R.H.) to remove remaining host odours and repellent volatiles from the air inside the cage. In the presented study, the ventilation system was not applied as mosquitoes were only tested once and then discarded. Each treated sleeve was tested on a fresh batch of mosquitoes. Each cage was filled with populations of 30 mosquitoes, lured out of their rearing cages by a natural stimulus (human hand) to ensure that only host-seeking females are used for the repellent tests
All formulations have been stored at 4° C. Prior to testing, stock formulations were diluted v/v to final concentrations of 10% in 200 proof ethanol. […] For each test formulations, 2 pieces were prepared—one was treated, while the other one remained untreated and was worn between skin and treated nylon sleeve.
From each test formulation 5 ml were filled into 25 ml glass flasks; immediately afterwards stockings were folded into the flasks and pushed into the liquid formulation with a clean spatula. Flasks were sealed and incubated in the fridge overnight. On the consecutive day, one of the treated nylon pieces was removed from the flasks and left to dry on a clean paper towel for at least 10 minutes or until the ethanol had evaporated. The drying process was conducted at 27° C. and 65% to 80%. One untreated nylon sleeve was attached to the forearm followed by the treated sleeve.
Prior to a repellent efficacy test, the biting activity of the test mosquitoes was verified with the other, untreated forearm of a volunteer (wearing an untreated nylon sleeve). To keep biting pressure on the untreated skin low, a modified spacer covered with fine mosquito netting was used in control tests. Mosquitoes were still attracted to the skin odours and landed on the net, however they were not able to reach the skin and pierce it. A minimum of 10 landings had to be observed in 30 seconds during tests with Ae. aegypti. In case of lowered biting activities, 5 to 10 new mosquitoes were added to the cage or 30 new mosquitoes are used. […] The number of landing and biting mosquitoes was recorded. […]

Assay [1] deals with female Aedes aegypti (Orlando strain, 1952). The assay can be described thus: Minimum effective dosage testing, human skin (treated cloth patch). Format: in vivo. The procedure:
The test mosquitoes were female Aedes aegypti (Orlando strain, 1952) from the colony maintained at United States Department of Agriculture-Agricultural Research Service-Center for Medical, Agricultural and Veterinary Entomology (USDA-ARS-CMAVE) in Gainesville, Fla. Pupae were obtained from the colony and newly emerged mosquitoes were maintained on 10% sugar water and kept in laboratory cages at an ambient temperature of 28±1° C. and RH of 35-60%. Host seeking behavior was pre-selected in nulliparous female mosquitoes aged 6-10 days, indicated by flight upwind towards a potential host, from stock cages using a hand-draw box and trapped in a collection trap.
After 500 (±10%) females were collected in the trap, they were transferred to a test cage (approximately 59,000 cm^3 with dimensions 45×37.5×35 cm) and allowed to acclimatize for 17.5 (±2.5) min before testing was initiated. Just prior to the experiment, the pieces of treated cloth are removed from the vials and stapled onto card stock tabs (5×3 cm). Each piece of the cards and the assembly were hung on a drying rack using masking tape for 3-5 min. Participants in the study used latex gloves to pull a nylon stocking over their arm. A Velcro™-sealed vinyl sleeve was then placed over the forearm. […] The purpose of the nylon stocking was to produce a barrier between the dried cloth and the skin, thereby avoiding direct contact of chemical to skin. The dried cloth assembly was affixed over the opening in the sleeve and held in place with masking tape. Participants then inserted their arm with the sleeve and patch into a screened cage that contained female Ae. Aegypti mosquitoes. Tests were conducted on each control or treated patch for 1 min. A control patch (acetone solvent only, then dried) was tested prior to the start of experiments and evaluation of the same untreated control patch after every 10 tests. If 5 landings were not received on the control patch in 30 s, then tests were discontinued for 60 min. At the conclusion of testing the control patch was tested again. If five landings were not received within 30 s, the data for the replicate was discarded. When testing a patch treated with a candidate repellent, if approximately 1% or 5 mosquito bites were received during this one minute test, this compound was considered to have failed, i.e., was not repellent at that concentration. If a treated cloth patch received 0-4 bites within a minute, then it was considered as passed, i.e., repellent at that concentration of the test compound. The median concentration patch was tested in the first round and treated patches were then tested successively at higher or lower concentrations depending upon whether the previous patch failed or passed, respectively.
The time interval between each tested patch was <90 seconds until 10 successive tests had been conducted. If appreciable, mortality had occurred during testing, the number of knocked down mosquitoes are estimated and additional female mosquitoes are added to the cage to keep the available mosquitoes at approximately 500. The estimate of the MED was the lowest concentration that passed for each candidate. Observed MED values for each candidate compound were averaged across participants and reported as a mean MED±standard error.

Setting [2] is: nylon treated with 10% in ethanol, max 2 min exposure, one volunteer.
The mark [3] stands for this setting: treated cloth patch, 1 min test, high dose 1.5 mg/cm^2.

“Also recorded” adds a separate entry of the source.

`CC(C)=CCCC(C)CC(=O)OCC(C)O` (stereo not drawn) [Compound 2144, 2-hydroxypropyl citronellate]: the Observations result with Aedes aegypti (nylon treated with 10%) was “Repellent effects were clearly noticeable; also recorded: Visible repelient effects”. In the assay on Aedes aegypti (nylon treated with 10% in ethanol, bites per 120 sec), the Bites is 0/120 sec. For the same compound, in the assay on Aedes aegypti (setting [2]), the “Contacts: Landing (mosquitoes sits for >3 sec)” value worked out at 2 and the “Contacts: Short touch-down” value was 18. Moreover, the bite reduction entry in the assay with Aedes aegypti (nylon treated with 10%, versus untreated nylon) is “(100% bite reduction)”. The compound further had a Minimum effective dosage in assay [1] of 0.055 mg/cm². Moreover, in assay [1] (average MED relative to DEET), the “Proportion to DEET” value is on record as 2.053. Further, the “Minimum effective dosage testing, result in words” value in assay [1] (in vivo) is recorded as “performed similarly to DEET”. Moreover, the “Minimum Effective Dosage, Average” value in assay [1] (mean across subjects) came to 0.039 mg/cm^2. Further, in assay [1] (setting [3]), the “Minimum Effective Dosage, Subject 1” value stood at 0.047 mg/cm^2; the “Minimum Effective Dosage, Subject 2” value was 0.047 mg/cm^2; the “Minimum Effective Dosage, Subject 3” value was determined as 0.023 mg/cm^2.
